These results are taken from article PMC10609273, “Radiosynthesis and Early Evaluation of a Positron Emission Tomography Imaging Probe [^18F]AGAL Targeting Alpha-Galactosidase A Enzyme for Fabry Disease” (Molecules, 2023).

The nature of data set [1]: In vitro liver microsomal metabolism study, rat. The following applies: rat liver microsomes. It counts as in vitro ADME. The procedure:
Metabolic stability was assessed by incubating compounds in the presence of human, rat, and mouse liver microsomal fractions (Xenotech, Kansas City, KS, USA). All chemicals and reagents, including control compounds, were purchased from commercial sources such as Sigma-Aldrich (St. Louis, MO, USA) or Toronto Research Chemicals (North York, ON, Canada). Liver microsomal incubations were conducted with 100 mM phosphate buffer, 0.5 mg/mL of liver microsomal protein, 2 mM NADPH, 2.5 mM UDPGA, 3 mM MgCl2, alamethicin, and 1 μM test article for a total incubation volume of 80 µL. All reagents except the liver microsomes were mixed together and aliquoted (60 μL) into 96-well plates. The reaction was initiated by adding the microsomes (20 μL). At 0, 3, 7, 12, 20, and 30 min time points, the reactions were terminated with the addition of acetonitrile-containing carbutamide (as an internal standard). The terminated samples were then centrifuged at 2 °C to pellet the protein and the supernatant was injected onto an LC–MS. The test article was monitored for loss over time and the t1/2 was determined. The calculated t1/2 was then used as described below to determine the Eh (hepatic extraction ratio) for both human and rat.
The intrinsic clearance (CLint), hepatic clearance (CLh), and hepatic extraction ratio (Eh) were calculated using the equations below. CLint = (0.693/t1/2 in vitro) × (mL incubation volume/mg microsomal protein) × (X mg of microsomal protein/gram of liver) × (Y g of liver/kg of body weight)(1) CLh = Q × CLint/Q + CLint(2) Eh = CLh/Q(3) where: • CLint = intrinsic clearance (calculated from microsomal incubations) • X = 40 for human, 41.5 for rat and 45 for mouse • Y = 21.4 for human, 40 for rat and 50 for mouse • t1/2 = half-life • CLh = hepatic clearance • Q = liver blood flow rate = 1.24 L/h/kg for human, 4.8 L/h/kg for rat, and 5.4 L/h/kg for mouse • Eh = hepatic extraction ratio • CLh = hepatic clearance
(In general: Microsomes from liver hold many membrane-bound enzymes, among them those of drug oxidation.)

Data set [2] in a line: Plasma stability study, human. It is filed as in vitro ADME. The procedure: Briefly, plasma stability was assessed by incubating compounds in the presence of human (pooled) and mouse (pooled) plasma (Bioreclamation, Westbury, NY, USA). All chemicals and reagents including control compounds were purchased from commercial sources such as Sigma-Aldrich or Toronto Research Chemicals. Plasma incubations were conducted by placing plasma (95 μL) in a 96-well microtiter plate and warming to 37 °C for 5 min. The reaction was initiated with the addition of the test article (5 μL of 20 μM), totaling 100 μL in incubation volume. At 0, 15, 30, 60, and 120 min time points, the reactions were terminated with the addition of acetonitrile-containing carbutamide (as an internal standard). The terminated samples were then centrifuged at 2 °C to pellet the protein, and the supernatant was injected onto an LC–MS. The test article was monitored for loss over time and the t1/2 was determined.

Molecules are shown by their SMILES.

A word on the CLint scaled: it is a measure of how fast metabolising enzymes remove a compound, apart from limits set by blood flow. Regarding `O=C(CCCCCCCn1cc(CCCF)nn1)N1[C@@H]2[C@H](O)[C@@H](O)[C@@H](O)[C@@H](CO)[C@@H]21` [AGAL], in data set [1], the CLh amounted to 55.7 mL/min/kg; the “Eh (hepatic extraction ratio)” value was determined as 0.695; the “microsomal stability, clearance in words” value was “moderately cleared”. Further, in data set [1] (1 μM, NADPH + UDPGA), the CLint scaled at 1 µM is 182 mL/min/kg. Moreover, in data set [2] (30 min post-incubation), the parent remaining was determined as 93%. Moreover, in data set [2] (pooled plasma, 37 °C, read-out: Plasma Half-Life, t1/2), the half-life at 1 µM is 3.47 h.
